Assay: DSC of drug crystals in adhesive (heat of melting, solid drug fraction)
Type: physicochemical
Description: To further study the interaction, the drug containing samples were analyzed via DSC using a TA Instruments Differential Scanning Calorimeter. The ionic silicone and PDMS-based samples containing ibuprofen, as well as pure drug were heated from room temperature to 200° C. at a rate of 5° C./min. The drug melting point, Tm was identified at 77° C. […] This evidence of differential interactions could explain the difference in ibuprofen release through these systems (FIGS. 5(b) and (c)).
The difference in drug compatibility with the ionic silicone adhesive vis-á-vis the PDMS adhesive was determined via DSC as described in Example 12 above. The free drug, and drug loaded PDMS and ionic silicone adhesive were subjected to a heating and cooling cycle under air atmosphere. The DSC thermograms are show in FIG. 9(b).
To quantify the result and the difference in compatibility, the areas were calculated as normalized heat of melting of drug crystals present in the formulation. The values were attributed to the solid fraction of distinct drug crystals present in the formulation, and the following results were obtained: […]

**Q.** Which “Heat of Melting” value (DSC, normalized heat of melting of drug crystals) does the source give for `C[C@]12CC[C@H]3[C@@H](CCC4=CC(=O)CC[C@@]43C)[C@@H]1CC[C@@H]2O` [Testosterone] here?
**A.** Its value is 73 J/gm.

**Q.** And the “% Solid drug fraction” value (from heat of melting relative to free testosterone (100% assigned))?
**A.** The value was 100%.
